From PubChem BioAssay (NCI)
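These data come from cells grown in 96-well plates and exposed to compound for 48 hours at five concentrations. The concentration for 50% growth inhibition is given as GI50. TGI denotes the concentration required for complete inhibition of growth.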

Legend:
Assay in all cases: NCI anticancer screen, dose series, 48 h
786-0 renal = test system: 786-0 renal
CAKI-1 renal = test system: CAKI-1 renal
HCT-116 colon = test system: HCT-116 colon
HS 578T breast = test system: HS 578T breast
K-562 leukemia = test system: K-562 leukemia
M14 melanoma = test system: M14 melanoma
NCI-H226 lung = test system: NCI-H226 lung
NCI-H522 lung = test system: NCI-H522 lung
OVCAR-3 ovarian = test system: OVCAR-3 ovarian
PC-3 prostate = test system: PC-3 prostate

Compound	GI50 (786-0 renal)	TGI (786-0 renal)	GI50 (CAKI-1 renal)	TGI (CAKI-1 renal)	GI50 (HCT-116 colon)	TGI (HCT-116 colon)	GI50 (HS 578T breast)	TGI (HS 578T breast)	GI50 (K-562 leukemia)	TGI (K-562 leukemia)	GI50 (M14 melanoma)	TGI (M14 melanoma)	GI50 (NCI-H226 lung)	TGI (NCI-H226 lung)	GI50 (NCI-H522 lung)	TGI (NCI-H522 lung)	GI50 (OVCAR-3 ovarian)	TGI (OVCAR-3 ovarian)	GI50 (PC-3 prostate)	TGI (PC-3 prostate)
ClCCn1c(CCl)nc2ccc(Cl)cc21	1.32 µM	2.94 µM	1.6 µM	3.2 µM	0.272 µM	0.731 µM	2.06 µM	7.03 µM	0.34 µM	1.03 µM	0.466 µM	1.64 µM	0.193 µM	0.442 µM	0.185 µM	0.363 µM	1.87 µM	3.45 µM	1.58 µM	3.39 µM
O=C1c2ccccc2-c2c1c1ccccc1c(=O)n2CCCNCCCNCCCn1c2c(c3ccccc3c1=O)C(=O)c1ccccc1-2	< 0.0362 µM	0.172 µM	0.342 µM	1.7 µM	< 0.01 µM	0.476 µM	0.0984 µM	1.28 µM	0.0225 µM	1.22 µM	0.333 µM	1.29 µM	< 0.014 µM	0.903 µM	< 0.01 µM	0.0554 µM	0.0818 µM	0.232 µM	0.0397 µM	0.142 µM
CCCCCn1c(=N)n(CC(O)COc2cccc(C)c2)c2ccccc21 (stereo not given)	7.74 µM	23.3 µM	6.95 µM	21.2 µM	3.03 µM	17.7 µM	5.5 µM	24.8 µM	2.76 µM	10.2 µM	3.26 µM	12.3 µM	10.3 µM	28 µM	5.7 µM	20 µM	8 µM	21.2 µM	4 µM	16.3 µM
C1CCSCCCCSCCCCSCCCCSC1		> 100 µM		> 100 µM		> 100 µM		> 100 µM		> 100 µM		> 100 µM		> 100 µM		> 100 µM		> 100 µM		> 100 µM
CN1CCN(CCc2cccc(C(=O)c3cnn(-c4ccc(F)cc4)c3N)c2)CC1	> 25 µM	> 25 µM	> 25 µM	> 25 µM	> 25 µM	> 25 µM	> 25 µM	> 25 µM	> 25 µM	> 25 µM	> 25 µM	> 25 µM	> 25 µM	> 25 µM	> 25 µM	> 25 µM	> 25 µM	> 25 µM	> 25 µM	> 25 µM
O=C(Cn1ccc(=O)[nH]c1=O)Nc1ccc(C(=O)O)c(O)c1		> 100 µM		> 100 µM		> 100 µM		> 100 µM		> 100 µM		> 100 µM		> 100 µM		> 100 µM		> 100 µM		> 100 µM
O=CNc1c(Cl)cc2c(c1Cl)Cc1cc([N+](=O)[O-])ccc1-2	20 µM	> 77 µM	8.34 µM	> 91.2 µM	1.02 µM	19.7 µM	1.77 µM	14.4 µM	1.38 µM	> 100 µM	2.92 µM	> 54.6 µM	4.21 µM	> 94.1 µM	3.05 µM	> 29.1 µM	1.34 µM	8.87 µM	8.06 µM	> 100 µM
CCCN=Cc1cc(Cc2ccc(O)c(C=NCCC)c2)ccc1O		32.1 µM		73.8 µM		7.19 µM		92.2 µM		4.71 µM		7.35 µM		51.2 µM		45.1 µM		14.4 µM		5.89 µM
Cc1ccc(S(=O)(=O)N2CCSCCSCCSCCSCC2)cc1		40.2 µM		66.4 µM		> 100 µM		> 53.1 µM		> 100 µM		> 100 µM		> 82.2 µM		> 69.8 µM		60.7 µM		> 100 µM
CN(CCCN)CCCNc1nc2ccccc2c2[nH]c3ccccc3c12	0.169 µM	0.853 µM	0.259 µM	0.754 µM	0.173 µM	1.2 µM	0.0765 µM	0.334 µM	0.0638 µM	0.346 µM	0.696 µM	1.93 µM	0.297 µM	0.997 µM	0.0613 µM	0.215 µM	0.359 µM	1.35 µM	0.342 µM	1.28 µM
COc1c(CCC[P+](c2ccccc2)(c2ccccc2)c2ccccc2)cc2c(c1OC)OCO2	3.91 µM	26.9 µM	2.45 µM	7.35 µM	1.2 µM	> 100 µM	1.72 µM	13.4 µM	0.529 µM	> 100 µM	2.22 µM	19.2 µM	3.3 µM	42.2 µM	1.75 µM	10.8 µM	0.629 µM	18 µM	0.961 µM	22.4 µM
COC(=O)/C=C/C=C(c1ccccc1)c1ccccc1	4.32 µM	58.5 µM	3.05 µM	10.4 µM	3.68 µM	18.9 µM	8.65 µM	46 µM	4 µM	> 100 µM	3.36 µM	17.5 µM	14.3 µM	> 100 µM	5.88 µM	78.1 µM	2.4 µM	8.24 µM	4.67 µM	> 100 µM
C=C1C(=O)O[C@H]2[C@H]1CC/C(COC(=O)NCc1ccccc1OC)=C\CC[C@@]1(C)O[C@@H]21	1.16 µM	2.74 µM	1.38 µM	2.77 µM	0.548 µM	1.86 µM	3.4 µM	19 µM	0.821 µM	6.07 µM	1.1 µM	2.56 µM	2.11 µM	4.96 µM	0.351 µM	1.92 µM	0.872 µM	2.42 µM	3.13 µM	10.6 µM
Cc1[c-]onc1C.Cc1[c-]onc1C.[Ag].[Ag].[NH-]S(=O)(=O)c1ccc(N=Nc2cc(N=Nc3ccc(S([NH-])(=O)=O)cc3)c3c(NC(=O)C(Cl)Cl)cccc3c2OC(=O)C(Cl)Cl)cc1	8.87 µM	16.4 µM	7.12 µM	14.2 µM	5.12 µM	18.2 µM	5.81 µM	> 50 µM	3.99 µM	32.2 µM	8.18 µM	18.4 µM	12.6 µM	> 50 µM	1.75 µM	14 µM	7.6 µM	15.8 µM	6.82 µM	> 50 µM
